Patent US8633251B2, “Derivatives of aminoalkanols, method of obtaining of aminoalkanols and their use” (Uniwersytet Jagiellonski, priority 2008, dated 2014)
Where a name gives a salt, the structure may show the parent alone.

Tests used:
[1] = system: maximal electroshock seizures; experiment: Maximum Electroshock Seizure (MES) test, mice; type: in vivo; settings: for MES, No. of protected animals/No. of used animals: mice, time 0.5 h
Protocol: (§1) In order to define anticonvulsant activity, screening tests were performed, using animal models of seizures. […] Each substance (after dissolving in methylcellulose) was normally tested in doses 30, 100, and 300 mg/kg body weight (b.w.) (mice) or in 30 and 50 mg/kg b.w. (rats) in two possible routes of administration: intraperitoneal (i.p.) or oral (p.o.). Appropriate tests were performed 0.5 and 4 h after administration of the compound. […] (mice) the tests were also performed in doses 10 and 3 mg/kg b.w.
Maximum Electroshock Seizure (MES) test is an electric test, verifying activity towards generalized tonic-clonic seizures (grand mal epilepsy). […] Its procedure consists in administration to an animal a mentioned dose, and after 0.5 or 4 h attaching corneal electrodes (after anesthetic eye-drops: 0.5% tetracaine hydrochloride in 0.9% NaCl) and turning on electric current (60 Hz, 0.2 s, 50 mA (mice) or 150 mA (rats)). […] Normally, in the dose 30 mg/kg b.w. the test is done in 1 mouse after 0.5 or 4 h, in the dose 100 mg/kg b.w.—in 3 mice, and in the dose 300 mg/kg b.w.—in 1 mouse.

neurotoxicity (rotarod) = experiment: Neurotoxicity test (TOX), rotarod, mice; type: in vivo
Protocol: as §1
It is performed with use of rotarod test. The animal is placed on a plastic rod (1 inch in diameter), rotating 6 rpm. The rod is placed on a level discouraging the animal to jump off. […] Neurotoxicity is stated if the animal cannot stay on the rod for 1 min. in any of 3 trials. Normally the test is performed in dose 30 mg/kg b.w. in 4 mice (0.5 h) and in 2 mice (4 h), in the dose 100 mg/kg b.w. in 8 mice (0.5 h) and in 4 mice (4 h) and in the dose 300 mg/kg b.w. in 4 mice (0.5 h) and 2 mice (4 h).

[2] = mice, dose 300 mg/kg b.w., time 4 h
[3] = Mus musculus, 0.5 h, read-out: MES, No. of protected animals/No. of used animals
[4] = mice, dose 30 mg/kg b.w., time 0.5 h
[5] = mice, dose 300 mg/kg b.w., time 0.5 h
[6] = mice, dose 100 mg/kg b.w., time 0.5 h

Compound	MES, No. of protected animals/No. of used animals ([1]; dose 100 mg/kg b.w.)	TOX, No. of animals exhibiting motor impairment/no. of used animals (neurotoxicity (rotarod); mouse, in vivo, 300 mg/kg)	TOX, No. of animals exhibiting motor impairment/no. of used animals (neurotoxicity (rotarod); mouse, in vivo, 100 mg/kg)	MES, No. of protected animals/No. of used animals ([1]; dose 30 mg/kg b.w.)	TOX, No. of animals exhibiting motor impairment/no. of used animals (neurotoxicity (rotarod); [5])	TOX, No. of animals exhibiting motor impairment/no. of used animals (neurotoxicity (rotarod); [6])	also measured
Cc1ccc(C)c(OCCNC(C)CO)c1 (stereo not drawn) [Compound 6, R,S-2N-[(2,5-dimethylphenoxy)ethyl]amino-1-propanol]	3/3	4/4					MES, No. of protected animals/No. of used animals ([1]; dose 300 mg/kg b.w.): 1/1
CCC(O)CNCCOc1cc(C)ccc1C (stereo not drawn) [Compound 7, R,S-1N-[(2,5-dimethylphenoxy)ethyl]amino-2-butanol]	3/3	4/4	8/8				MES, No. of protected animals/No. of used animals ([1]; dose 300 mg/kg b.w.): 1/1
CCC(CO)NCCOc1cc(C)ccc1C (stereo not drawn) [Compound 8, R,S-2N-[(2,5-dimethylphenoxy)ethyl]amino-1-butanol]	3/3	4/4	8/8				
Cc1cccc(C)c1OCCNC(C)CO.Cl (stereo not drawn) [Compound 11a, R,S-2N-[(2,6-dimethylphenoxy)ethyl]amino-1-propanol hydrochloride]	1/1	4/4	8/8	1/1			TOX, No. of animals exhibiting motor impairment/no. of used animals (neurotoxicity (rotarod); mouse, in vivo, 30 mg/kg): 3/4
Cc1cccc(C)c1OCCN[C@H](C)CO [Compound 12a, R-(−)-2N-[(2,6-dimethylphenoxy)ethyl]amino-1-propanol hydrochloride]							MES, No. of protected animals/No. of used animals ([1]; dose 100 mg/kg b.w., hydrochloride, 100 mg/kg): 3/3; TOX, No. of animals exhibiting motor impairment/no. of used animals (neurotoxicity (rotarod); [2]): 1/1
Cc1cccc(C)c1OCCN[C@@H](C)CO.Cl [Compound 13a, S-(+)-2N-[(2,6-dimethylphenoxy)ethyl]amino-1-propanol hydrochloride]	3/3	4/4	8/8	1/1			
Cc1cccc(C)c1OCCNC(C)(C)CCO [Compound 15, 3N-[(2,6-dimethylphenoxy)ethyl]amino-3-methyl-1-butanol hydrochloride]					7/8		responders at 10 mg/kg [1, 3]: 100%; responders at 300 mg/kg [1, 3]: 100%; TOX, No. of animals exhibiting motor impairment/no. of used animals (neurotoxicity (rotarod); mice, dose 10 mg/kg b.w., time 0.5 h): 7/8; TOX, No. of animals exhibiting motor impairment/no. of used animals (neurotoxicity (rotarod); [4]): 4/4
Cc1cccc(C)c1OCCN[C@H](CO)C(C)C [Compound 16, L-2N-[(2,6-dimethylphenoxy)ethyl]amino-3-methyl-1-butanol hydrochloride]					4/4	7/8	responders at 100 mg/kg [1, 3]: 100%
Cc1cccc(C)c1OCCNCCCCCO [Compound 17, 5N-[(2,6-dimethylphenoxy)ethyl]amino-1-pentanol hydrochloride]					4/4	7/8	responders at 100 mg/kg [1, 3]: 100%; TOX, No. of animals exhibiting motor impairment/no. of used animals (neurotoxicity (rotarod); [2]): 1/1
Cc1cccc(C)c1OCCNCC(O)c1ccccc1 (stereo not drawn) [Compound 19, R,S-2N-[(2,6-dimethylphenoxy)ethyl]amino-1-phenylethanol]	3/3			1/1	4/4	8/8	TOX, No. of animals exhibiting motor impairment/no. of used animals (neurotoxicity (rotarod); [4]): 1/4
Cc1cccc(C)c1OCCNC[C@@H](O)c1ccccc1 [Compound 21, S-(+)-2N-[(2,6-dimethylphenoxy)ethyl]amino-1-phenylethanol]	3/3			1/1	4/4	7/8	
Cc1cccc(Cl)c1OCCNC(C)CO (stereo not drawn) [Compound 24, R,S-2N-[(2-chlor-6-methylphenoxy)ethyl]amino-1-propanol]	3/3				4/4	5/8	
